Measurements: patent publication US11046682B2, “Fused heterocyclic derivatives, their preparation methods thereof and medical uses thereof” (Beijing Innocare Pharma Tech Co., Ltd., priority 2016, dated 2021)

What follows are molecules tested against full-length human recombinant IDO1 protein (Homo sapiens (Human), UniProt P14902) (assay: IDO enzyme activity inhibition testing (Ehrlich method)). Details: OD490, 10 concentration points.
Format: biochemical
Protocol: IDO Enzyme Activity Inhibition Testing
The effects of the compounds of the invention on the activity of indoleamine 2,3-dioxygenase (IDO) were evaluated by the Ehrlich method.
The experimental principle is summarized as follows: IDO1 catalyzes oxidation of tryptophan to form N-formyl kynurenine, N-formyl kynurenine is subsequently hydrolyzed by trichloroacetic acid to form kynurenine, and kynurenine further reacts with the Ehrlich reagent to make the solution yellow. The absorbance at 490 nm (OD490) is directly proportional to the activity of IDO1.
The experimental methods are summarized as follows:
The reaction buffer was 50 mM 2-(N-morpholine)ethanesulfonic acid-hydrate (Sigma, Cat. No. 69889); the full-length human recombinant IDO1 protein was purchased from the Tsinghua Protein Research Technology Center and diluted to a 33.6 ng/μL enzyme solution with the reaction buffer; the substrate solution was prepared with the reaction buffer containing 20 mM vitamin C (Sigma, Cat. No. A5960), 150 μM L-tryptophan (Sigma, Cat. No. T0254), 2250 UI/mL catalase (Sigma, Cat. No. C30), and 10 μM methylene blue (Sigma, Cat. No. 28514); the reaction termination solution was 30% (mass/volume) trichloroacetic acid (Sigma, Cat. No. T9159) aqueous solution; the Ehrlich reagent was 2% p-dimethylaminobenzaldehyde (Sigma, Cat. No. 156477) acetic acid (Macklin, Cat. No. A801295) solution.
A compound was dissolved in DMSO (Sigma, Cat. No. D5879) and diluted to 1 mM, then serially diluted 3-fold with DMSO to a minimum concentration of 50.8 nM, and each concentration was further diluted 25-fold with the reaction buffer. If a compound's IC50 value was very low, the initial concentration of the compound was decreased.
A 10-μL compound solution and a 10-μL enzyme solution were added to a 96-well plate (Sigma, Cat. No. CLS3695), mixed well and incubated at room temperature. After 15 min, a 20-μL substrate solution was added and incubated at 60° C. after mixing for 30 min. The reaction plate was equilibrated to room temperature and 60 μL of the Ehrlich reagent was added. After incubation for 15 min, OD490 of each well was measured.
In this experiment, OD490 without enzyme was referred as OD490100% inhibition, and OD490 with enzyme added but without compound was referred as OD4900% inhibition.
(§1) Where Y is the percentage of inhibition, Bottom is the bottom platform value of the S-curve, Top is the top platform value of the S-curve, X is the logarithm of the concentration of the test compound, and slope factor is the slope coefficient of the curve.

full-length human recombinant IDO1 protein, sequence (P14902 whole entry): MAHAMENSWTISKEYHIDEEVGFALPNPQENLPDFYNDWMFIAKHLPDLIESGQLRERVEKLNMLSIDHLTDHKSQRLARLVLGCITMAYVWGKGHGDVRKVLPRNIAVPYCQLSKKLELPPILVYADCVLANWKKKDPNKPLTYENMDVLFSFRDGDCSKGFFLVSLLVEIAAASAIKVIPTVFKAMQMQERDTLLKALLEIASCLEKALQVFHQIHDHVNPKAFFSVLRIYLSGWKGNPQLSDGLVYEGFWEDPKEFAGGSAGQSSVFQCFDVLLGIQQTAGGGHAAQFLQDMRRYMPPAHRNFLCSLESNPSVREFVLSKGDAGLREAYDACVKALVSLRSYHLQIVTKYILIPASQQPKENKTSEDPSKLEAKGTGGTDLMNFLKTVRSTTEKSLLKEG

SMILES | IC50 [µM]
N#Cc1ccc(NC(=O)Nc2cccc3cncn23)cc1 [Compound 1, 1-(4-cyanophenyl)-3-(imidazo[1,5-a]pyridin-5-yl)urea] | 0.25 to 1.5
O=C(Nc1ccc(Cl)cc1)Nc1cccc2cncn12 [Compound 3, 1-(4-chlorophenyl)-3-(imidazo[1,5-a]pyridin-5-yl)urea] | 0.25 to 1.5
N#Cc1ccc(NC(=O)Nc2c(F)ccc3cncn23)cc1 [Compound 14, 1-(4-cyanophenyl)-3-(6-fluoroimidazo[1,5-a]pyridin-5-yl)urea] | < 0.25
COc1ccc2cncn2c1NC(=O)Nc1ccc(C#N)cc1 [Compound 15, 1-(4-cyanophenyl)-3-(6-methoxyimidazo[1,5-a]pyridin-5-yl)urea] | 0.25 to 1.5
CCOc1ccc2cncn2c1NC(=O)Nc1ccc(C#N)cc1 [Compound 16, 1-(4-cyanophenyl)-3-(6-ethoxyimidazo[1,5-a]pyridin-5-yl)urea] | 0.25 to 1.5
N#Cc1ccc(NC(=O)Nc2cc(Cl)cc3cncn23)cc1 [Compound 20, 1-(7-chloroimidazo[1,5-a]pyridin-5-yl)-3-(4-cyanophenyl)urea] | < 0.25
N#Cc1ccc(NC(=O)Cc2cc(Cl)cc3cncn23)cc1 [Compound 41, 2-(7-chloroimidazo[1,5-a]pyridin-5-yl)-N-(4-cyanophenyl)acetamide] | < 0.25
c1ccc(-c2ccc3cncn3c2CNCC2CCCCC2)cc1 [Compound 59, 1-cyclohexyl-N-((6-phenylimidazo[1,5-a]pyridin-5-yl)methyl)methanamine] | 0.25 to 1.5
CC(C)CNCc1c(-c2ccccc2)ccc2cncn12 [Compound 61, 2-methyl-N-((6-phenylimidazo[1,5-a]pyridin-5-yl)methyl)propan-1-amine] | 0.25 to 1.5
CC(C)(O)CNCc1c(-c2ccccc2)ccc2cncn12 [Compound 62, 2-methyl-1-(((6-phenylimidazo[1,5-a]pyridin-5-yl)methyl)amino)propan-2-ol] | < 0.25
N#Cc1ccc(NC(=O)Cc2cc(Cl)cc3[nH]ncc23)cc1 [Compound 63, 2-(6-chloro-1H-indazol-4-yl)-N-(4-cyanophenyl)acetamide] | 0.25 to 1.5

Further lines, results first:

IC50 [µM] | SMILES
0.25 to 1.5 | O=C(Nc1ccc(C(=O)O)cc1)Nc1c(-c2ccccc2)ccc2cncn12 [Compound 27, 4-(3-(6-phenylimidazo[1,5-a]pyridin-5-yl)ureido)benzoic acid]
0.25 to 1.5 | CNC(=O)c1ccc(NC(=O)Nc2c(-c3ccccc3)ccc3cncn23)cc1 [Compound 28, N-methyl-4-(3-(6-phenylimidazo[1,5-a]pyridin-5-yl)ureido)benzamide]
0.25 to 1.5 | NC(=O)c1ccc(NC(=O)Nc2c(-c3ccccc3)ccc3cncn23)cc1 [Compound 29, 4-(3-(6-phenylimidazo[1,5-a]pyridin-5-yl)ureido)benzamide]
0.25 to 1.5 | O=C(Nc1ccc(C(=O)NCCO)cc1)Nc1c(-c2ccccc2)ccc2cncn12 [Compound 30, N-(2-hydroxyethyl)-4-(3-(6-phenylimidazo[1,5-a]pyridin-5-yl)ureido)benzamide]
< 0.25 | N#Cc1ccc(NC(=O)Nc2c(-c3ccccc3)ccc3cncn23)cn1 [Compound 32, 1-(6-cyanopyridin-3-yl)-3-(6-phenylimidazo[1,5-a]pyridin-5-yl)urea]
0.25 to 1.5 | N#Cc1ccc(NC(=O)Nc2c(-c3ccccc3)ccc3cncn23)nc1 [Compound 33, 1-(5-cyanopyridin-2-yl)-3-(6-phenylimidazo[1,5-a]pyridin-5-yl)urea]
< 0.25 | COc1cc(NC(=O)Nc2c(-c3ccccc3)ccc3cncn23)ccc1C#N [Compound 34, 1-(4-cyano-3-methoxyphenyl)-3-(6-phenylimidazo[1,5-a]pyridin-5-yl)urea]
< 0.25 | COc1cc(C#N)ccc1NC(=O)Nc1c(-c2ccccc2)ccc2cncn12 [Compound 35, 1-(4-cyano-2-methoxyphenyl)-3-(6-phenylimidazo[1,5-a]pyridin-5-yl)urea]
0.25 to 1.5 | N#Cc1ccc(NC(=O)Cc2c(-c3ccccc3)ccc3cncn23)c(CO)c1 [Compound 40, N-(4-cyano-2-(hydroxymethyl)phenyl)-2-(6-phenylimidazo[1,5-a]pyridin-5-yl)acetamide]
< 0.25 | N#Cc1ccc(CNCc2c(-c3ccccc3)ccc3cncn23)cc1 [Compound 42, 4-((((6-phenylimidazo[1,5-a]pyridin-5-yl)methyl)amino)methyl)benzonitrile]
< 0.25 | N#Cc1ccc(N(O)C(=O)Cc2c(-c3ccccc3)ccc3cncn23)cc1 [Compound 45, N-(4-cyanophenyl)-N-hydroxy-2-(6-phenylimidazo[1,5-a]pyridin-5-yl)acetamide]
< 0.25 | O=C(Cc1c(-c2ccccc2)ccc2cncn12)Nc1ccc(C(=O)N2CCOCC2)cc1 [Compound 47, N-(4-(morpholine-4-carbonyl)phenyl)-2-(6-phenylimidazo[1,5-a]pyridin-5-yl)acetamide]
< 0.25 | COC1CCN(C(=O)c2ccc(NC(=O)Cc3c(-c4ccccc4)ccc4cncn34)cc2)CC1 [Compound 48, N-(4-(4-methoxypiperidine-1-carbonyl)phenyl)-2-(6-phenylimidazo[1,5-a]pyridin-5-yl)acetamide]
< 0.25 | COCCn1cc(-c2ccc(NC(=O)Cc3c(-c4ccccc4)ccc4cncn34)cc2)cn1 [Compound 52, N-(4-(1-(2-methoxyethyl)-1H-pyrazol-4-yl)phenyl)-2-(6-phenylimidazo[1,5-a]pyridin-5-yl)acetamide]
0.25 to 1.5 | CN(Cc1ccc(C#N)cc1)Cc1c(-c2ccccc2)ccc2cncn12 [Compound 55, 4-((methyl((6-phenylimidazo[1,5-a]pyridin-5-yl)methyl)amino)methyl)benzonitrile]
0.25 to 1.5 | c1ccc(CNCc2c(-c3ccccc3)ccc3cncn23)cc1 [Compound 58, N-benzyl-1-(6-phenylimidazo[1,5-a]pyridin-5-yl)methanamine]

Each molecule was assayed against indoleamine 2,3-dioxygenase (IDO) in Hela cells (Homo sapiens (Human), UniProt P14902) (assay: IDO intracellular activity inhibition testing in Hela cells induced by IFN-γ (Ehrlich method)). Details: 24 hours, OD490, 8 concentration points.
indoleamine 2,3-dioxygenase (IDO) in Hela cells, sequence (P14902 whole entry): as above
Format: cell-based
Protocol: IDO Intracellular Activity Inhibition Testing
The effects of the compounds of the invention on the activity of indoleamine 2,3-dioxygenase (IDO) in Hela cells induced by IFN-γ were evaluated by the Ehrlich method.
The experimental principle is summarized as follows: IDO expression is low in Hela cells under no induction, but a certain concentration of IFN-γ can induces Hela cells to express IDO which catalyzes the conversion of tryptophan to N-formyl kynurenine, which in turn is hydrolyzed by trichloroacetic acid to give kynurenine. Kynurenine then reacts with the Ehrlich reagent to give a color enabling detection of the IDO activity. The absorbance at 490 nm (OD490) is directly proportional to the IDO activity.
A compound was dissolved in DMSO (Sigma, Cat. No. D5879) and diluted to 5 mM, then serially diluted 3-fold with DMSO to a minimum concentration of 2.29 μM, and each concentration point was diluted 50-fold with FBS-free DMEM medium (ThermoFisher, Cat. No. 11995073). If a compound's IC50 value is very low, the initial concentration of the compound was lowered.
Hela cells (ATCC, Cat. No. CCL-2) were cultured in DMEM complete medium containing 10% FBS (GBICO, Cat. No. 10099-141) and 100 U/mL streptomycin mixture (ThermoFisher, Cat. No. 15140122). When covering the culture vessel 80-90%, the cells were digested with 0.25% trypsin (containing EDTA) (ThermoFisher, Cat. No. 25200056) and planted in 96-well plates (Corning, Cat. No. 3599), 20000 cells per well (80 μL of DMEM medium). The plates were then incubated in a 37° C., 5% CO2 incubator overnight (18-20 hours).
After overnight, 10 μL of DMEM-diluted compound and 10 μL of 500 ng/mL of INF-γ were added to each well, and gently mixed and the 96-well plates were placed in a 37° C., 5% CO2 incubator for further culturing. After 24 hours, they were removed and centrifuged at room temperature 2000×g for 5 min, and then the supernatants were transferred to reaction plates (Sigma, Cat. No. CLS3695). One-twentieth of trichloroacetic acid (Sigma, Cat. No. T9159) was added and incubated at 60° C. After 30 min, the reaction plates were centrifuged at room temperature 2000×g for 5 min. The supernatants were transferred to clean reaction plates, an equal volume of the Ehrlich reagent was added, mixed, and incubated at room temperature. After 15 min, OD490 of each well was measured.
In this experiment, OD490 without IFN-γ but with DMEM medium replacement was referred as OD490100% inhibition. OD490 with IFN-γ and 0.2% DMSO was referred as OD4900% inhibition. The percentage of inhibition on the IDO1 activity in Hela cells by a compound was calculated using the following formula: Inhibition %=100−100*(OD490compound−OD490100% inhibition)/(OD4900% inhibition−OD490100% inhibition)
as §1

IC50 [µM] | SMILES
< 1 | N#CC1CCC(NC(=O)Nc2c(-c3ccccc3)ccc3cncn23)CC1 (centres unmarked) [Compound 36, 1-(4-cyanocyclohexyl)-3-(6-phenylimidazo[1,5-a]pyridin-5-yl)urea]
< 1 | N#Cc1ccc(NC(=O)C(O)c2c(-c3ccccc3)ccc3cncn23)cc1 (centres unmarked) [Compound 64, N-(4-cyanophenyl)-2-hydroxy-2-(6-phenylimidazo[1,5-a]pyridin-5-yl)acetamide]
